Reference: patent publication US20260060944A1, “PHARMACEUTICAL COMPOSITION AND USE THEREOF” (priority 2022, published 2026)

How the values were obtained:
[1] = tested on: human non-small cell lung cancer (A549) cell lines; assay: Cell survival rate (MTS) of A549 cells; assay type: cell-based; details: for reduction in survival rate: individually administered at concentrations ranging from 2 to 80 nM
Protocol: (§1) Human cancer cell lines, including non-small cell lung cancer (A549), glioblastoma (U87), glioblastoma (T98G), erythroleukemia type cell line (K-562), acute monocytic leukemia (THP-1), hepatocellular carcinoma (HepG2), colorectal cancer (HCT116), ovarian cancer (TOV-21G), triple-negative breast cancer (MDA-MB-231), or drug-resistant human breast cancer (MCF7-resistant), were cultured in media supplemented with 10% (v/v) fetal bovine serum (FBS) (Penicillin-Streptomycin Solution, ACE Biolabs, CC1009), glutamine-enriched Nutrient Mixture F-12 Ham Kaighn's Modification (F-12/K, SIGMA-ALDRICH, USA), and RPMI-1640 (HiMedia Laboratories LLC, USA). The cell lines were separately incubated in a 5% CO2 atmosphere at 37° C. using a controlled incubator (Astec-SCA-165DS).
(§2) Different cancer cell lines were seeded in 96-well plates and allowed to adhere for 24 hours. Cells were then treated with combinations of three drugs, while untreated cells served as the control group. 20 μL of MTS reagent (Promega, USA) was added to each well and incubated at 37° C. for one hour. Optical density (OD) was measured at 490 nm using an ELISA detector (BioTek EPOCH2) to evaluate the ell viability and proliferation by using the following formula: […]
(§3) In some embodiments of the present invention, drug concentrations used for testing cancer cell lines is in nM and the effective dose range ranged from 0.8 nM to 83 nM.
To evaluate whether the pharmaceutical composition containing various pharmacologically active ions could produce synergistic drug effects, tests were conducted on human non-small cell lung cancer (A549) cell lines. The dose units in Table 2 are expressed in nM. The pharmacologically active ion used in this study was gluconate ion.
To evaluate whether varying dosages of the pharmaceutical composition of the present invention could inhibit the survival rate of human non-small cell lung cancer cell line (A549), cell survival analyses of A549 were conducted.
In this experiment, the pharmacologically active copper ion was cupric in the form of copper gluconate.

[2] = tested on: glioblastoma (T98G) cell line; assay: Cell survival rate (MTS) of T98G cells; assay type: cell-based, Human
Protocol: as §1, §2, §3
To evaluate the inhibitory effect of the pharmaceutical composition of the present invention on the survival rate of glioblastoma (T98G) cell line, analysis on survival rate was performed.
The active copper ion used in this study was copper gluconate.

[3] = tested on: glioblastoma (U-87) cell line; assay: Cell survival rate (MTS) of U-87 cells; assay type: cell-based, Human
Protocol: as §1, §2, §3
To evaluate the inhibitory effect of the pharmaceutical composition of the present invention on the survival rate of glioblastoma (U-87) cell line, analysis on survival rate was performed.
The active copper ion used in this study was copper gluconate. […] Using the pharmaceutical composition, the concentrations could be reduced while achieving a higher inhibition rate.

[4] = tested on: human non-small cell lung cancer (A549) cell line; assay: In vivo tumor suppression, A549 subcutaneous tumor model in nude mice; set-up: species or system Balb/c nude mice; details: A549 tumors in nude mice; for Tumor Weight: after sacrifice
Description: (§4) Female, 5-week-old Balb/c CAnN.Cg-Foxnlnu/CrlNarl nude mice were obtained from the National Laboratory Animal Center. […] Experiments commenced when they reached six weeks of age.
(§5) Nude mice of six weeks of age were used to establish two lung epithelial carcinoma and animal models. 1×10^7 cells of Human non-small cell lung cancer (NSCLC) cell line A549 and of human lung squamous carcinoma cell line H520, provided by the Food Industry Research and Development Institute in Taiwan, were subcutaneously injected 100 μL into the dorsal area near the right hind limb.
A549 model: 6 mice per group, administered orally once daily for 25 days.
(§6) H520 model: 7 mice per group, administered orally once daily for 13 days. The pharmacologically active multivalent ions used were copper ions in the form of copper gluconate.
(§7) Tumor volume was measured weekly using a tumor measurement device (TM900, Peira, Turnhout, Belgium). After five weeks of drug administration, the mice were sacrificed, and tumors were excised from the right hind limb. Tumor volume was calculated based on the longest and shortest diameters using the formula: […]
(§8) The tumors were then weighed and recorded. Tumor inhibition rates were calculated using the control group as a baseline: […]
A tumor model was established in nude mice via subcutaneous injection. Tumor size was monitored for 14 days, after which the mice were divided into six groups and treated with the pharmaceutical composition. The pharmaceutical-using group continued to be fed the test drug by oral gavage.

[5] = tested on: human lung squamous cell carcinoma (H520) cell line; assay: In vivo tumor suppression, H520 subcutaneous tumor model in nude mice; set-up: species or system Balb/c nude mice; details: H520 tumors in nude mice
Description: as §4, §5, §6, §7, §8
A tumor model was established in nude mice via subcutaneous injection. Tumor size was measured over 14 days, after which the mice were then divided into six groups and treated with the pharmaceutical composition. The pharmaceutical-using group continued to be fed the test drug by oral gavage. Due to the rapid growth rate of H520 tumors in vivo, animals were sacrificed when tumors reached a specific size. Tumor model nude mice were sacrificed after 13 days of administration to evaluate changes in tumor growth and observe the inhibitory effect of the test drug on tumors.

[6] = tested on: human lung squamous cell carcinoma (H520) cell line; assay: as above; set-up: species or system Balb/c nude mice; details: H520 tumors in nude mice, oral once daily
[7] = oral once daily for 25 days, when sacrificed
[8] = oral once daily, Day 7 of administration
[9] = oral once daily for 13 days, when sacrificed

O=C(Nc1ccc([N+](=O)[O-])cc1Cl)c1cc(Cl)ccc1O [Niclosamide]
reduction in survival rate [1]: no significant reduction in survival rate | Survival Rate (%) ([1]; single agent 2 nM (Table 3)): 112.66% | Survival Rate (%) ([1]; single agent 6 nM (Table 2)): 98.00% | Survival Rate (%) ([2]; single agent 8 nM): 92.50% | Survival Rate (%) ([2]; single agent 16 nM): 87.87% | Survival Rate (%) ([3]; single agent 8 nM): 89.33% | Survival Rate (%) ([3]; single agent 16 nM): 88.60% | Tumor Weight [4]: 0.330 g | tumor volume inhibition rates compared to Group S1 ([4]; at the time of sacrifice): 12.78% | average tumor weight inhibition rates compared to Group S1 ([4]; following sacrifice): 13.5% | Tumor Volume [4, 7]: 396.1 mm^3 | Tumor Volume [4, 8]: 73.4 mm^3 | Tumor Volume ([4]; oral once daily, Day 11): 89.7 mm^3 | Tumor Volume ([4]; oral once daily, Day 14): 136.3 mm^3 | Tumor Volume ([4]; oral once daily, Day 17): 179.6 mm^3 | Tumor Volume ([4]; oral once daily, Day 20): 219.0 mm^3 | Tumor Volume ([4]; oral once daily, Day 23): 319.8 mm^3 | Tumor Weight ([5]; after sacrifice): 0.955 g | average tumor weight inhibition rates compared to Group S1 ([5]; after sacrifice): 30.5% | tumor volume inhibition rates compared to Group S1 ([5]; at the time of sacrifice): 30.49% | Tumor Volume [5, 9]: 1604.3 mm^3 | Tumor Volume ([5]; oral once daily, Day 7): 538.8 mm^3 | Tumor Volume ([6]; Day 4 of administration): 269.6 mm^3 | Tumor Volume ([6]; Day 9): 802.4 mm^3 | Tumor Volume ([6]; Day 11): 1204.1 mm^3

copper gluconate [cupric]
reduction in survival rate [1]: no significant reduction in survival rate | Survival Rate (%) ([1]; single agent 1 nM (Table 2)): 103.70% | Survival Rate (%) ([1]; single agent 80 nM (Table 3)): 109.28% | Survival Rate (%) ([2]; single agent 16 nM): 102.03% | Survival Rate (%) ([2]; single agent 41 nM): 102.19% | Survival Rate (%) ([2]; single agent 83 nM): 98.35% | Survival Rate (%) ([3]; single agent 16 nM): 103.71% | Survival Rate (%) ([3]; single agent 41 nM): 103.97% | Survival Rate (%) ([3]; single agent 83 nM): 101.73%

CCN(CC)C(=S)SSC(=S)N(CC)CC [Disulfiram]
Survival Rate (%) ([1]; single agent 1 nM (Table 2)): 99.58% | Survival Rate (%) ([1]; single agent 80 nM (Table 3)): 93.85% | Survival Rate (%) ([2]; single agent 16 nM): 96.37% | Survival Rate (%) ([2]; single agent 41 nM): 97.27% | Survival Rate (%) ([2]; single agent 83 nM): 96.15% | Survival Rate (%) ([3]; single agent 16 nM): 102.66% | Survival Rate (%) ([3]; single agent 41 nM): 101.02% | Survival Rate (%) ([3]; single agent 83 nM): 63.98%

[Ca] [calcium]
Survival Rate (%) ([1]; single agent 1 nM (Table 2)): 103.98%

[Zn+2] [zinc]
Survival Rate (%) ([1]; single agent 1 nM (Table 2)): 104.71%

COc1cc2ncnc(Nc3ccc(F)c(Cl)c3)c2cc1OCCCN1CCOCC1 [Group S4, Gefitinib]
Tumor Weight [4]: 0.197 g | Tumor Volume [4, 7]: 239.6 mm^3 | Tumor Volume [4, 8]: 54.2 mm^3 | Tumor Volume ([4]; oral once daily, Day 11): 69.5 mm^3 | Tumor Volume ([4]; oral once daily, Day 14): 82.0 mm^3 | Tumor Volume ([4]; oral once daily, Day 17): 102.8 mm^3 | Tumor Volume ([4]; oral once daily, Day 20): 141.3 mm^3 | Tumor Volume ([4]; oral once daily, Day 23): 202.6 mm^3 | Tumor Weight ([5]; after sacrifice): 0.981 g | Tumor Volume [5, 9]: 1653.1 mm^3 | Tumor Volume ([5]; oral once daily, Day 7): 506.4 mm^3 | Tumor Volume ([6]; Day 4 of administration): 259.6 mm^3 | Tumor Volume ([6]; Day 9): 898.6 mm^3 | Tumor Volume ([6]; Day 11): 1290.0 mm^3

[Mg] [magnesium]
Survival Rate (%) ([1]; single agent 1 nM (Table 2)): 100.52%

[Fe+2] [ferrous]
Survival Rate (%) ([1]; single agent 1 nM (Table 2)): 106.27%

[Mn+2] [manganese]
Survival Rate (%) ([1]; single agent 1 nM (Table 2)): 104.35%
